Data published in patent US8304434B2, “Substituted aryl sulfone derivatives as calcium channel blockers” (Merck Sharp & Dohme Corp., priority 2007, dated 2012).

Molecular target: T1, Human Cav2.2 channels (Homo sapiens, UniProt Q00975)
T1 construct: expressed in transfected cells; also expresses Kir2.3)
Assay: Fluorescent assay for Cav2.2 channels using potassium depolarization to initiate channel opening (Assay Example 1)
Type: cell-based
Details: Assay Example 1, HEK293 cells expressing human Cav2.2; pre-incubation potassium concentration not stated
Source text: Human Cav2.2 channels were stably expressed in HEK293 cells along with alpha2-delta and beta subunits of voltage-gated calcium channels. An inwardly rectifying potassium channel (Kir2.3) was also expressed in these cells to allow more precise control of the cell membrane potential by extracellular potassium concentration. At low bath potassium concentration, the membrane potential is relatively negative, and is depolarized as the bath potassium concentration is raised. In this way, the bath potassium concentration can be used to regulate the voltage-dependent conformations of the channels. Compounds are incubated with cells in the presence of low (4 mM) potassium or elevated (12, 25 or 30 mM) potassium to determine the affinity for compound block of resting (closed) channels at 4 mM potassium or affinity for block of open and inactivated channels at 12, 25 or 30 mM potassium. After the incubation period, Cav2.2 channel opening is triggered by addition of higher concentration of potassium (70 mM final concentration) to further depolarize the cell. The degree of state-dependent block can be estimated from the inhibitory potency of compounds after incubation in different potassium concentrations.
Calcium influx through Cav2.2 channels is determined using a calcium-sensitive fluorescent dye in combination with a fluorescent plate reader. Fluorescent changes were measured with either a VIPR (Aurora Instruments) or FLIPR (Molecular Devices) plate reader.
• 1. Seed cells in Poly-D-Lysine Coated 96- or 384-well plate and keep in a 37° C.-10% CO2 incubator overnight • 2. Remove media^1, wash cells with 0.2 ml (96-well plate) or 0.05 ml (384-well plate) Dulbecco's Phosphate Buffered Saline (D-PBS) with calcium & magnesium (Invitrogen; 14040) • 3. Add 0.1 ml (96-well plate) or 0.05 ml (384-well plate) of 4 μM fluo-4 (Molecular Probes; F-14202) and 0.02% Pluronic acid (Molecular Probes; P-3000) prepared in D-PBS with calcium & magnesium (Invitrogen; 14040) supplemented with 10 mM Glucose & 10 mM Hepes/NaOH; pH 7.4 • 4. Incubate in the dark at 25° C. for 60-70 min • 5. Remove dye^2, wash cells with 0.1 ml (96-well plate) or 0.06 ml (384-well plate) of 4, 12, 25, or 30 mM Potassium Pre-polarization Buffer. (PPB) • 6. Add 0.1 ml (96-well plate) or 0.03 ml (384-well plate) of 4, 12, 25, 30 mM PPB, with or without test compound • 7. Incubate in the dark at 25° C. for 30 min • 8. Read cell plate on VIPR instrument, Excitation=480 nm, Emission=535 nm • 9. With VIPR continuously reading, add 0.1 ml (96-well plate) or 0.03 ml (384-well plate) of Depolarization Buffer, which is 2× the final assay concentration, to the cell plate.

T1 sequence (Q00975 whole entry): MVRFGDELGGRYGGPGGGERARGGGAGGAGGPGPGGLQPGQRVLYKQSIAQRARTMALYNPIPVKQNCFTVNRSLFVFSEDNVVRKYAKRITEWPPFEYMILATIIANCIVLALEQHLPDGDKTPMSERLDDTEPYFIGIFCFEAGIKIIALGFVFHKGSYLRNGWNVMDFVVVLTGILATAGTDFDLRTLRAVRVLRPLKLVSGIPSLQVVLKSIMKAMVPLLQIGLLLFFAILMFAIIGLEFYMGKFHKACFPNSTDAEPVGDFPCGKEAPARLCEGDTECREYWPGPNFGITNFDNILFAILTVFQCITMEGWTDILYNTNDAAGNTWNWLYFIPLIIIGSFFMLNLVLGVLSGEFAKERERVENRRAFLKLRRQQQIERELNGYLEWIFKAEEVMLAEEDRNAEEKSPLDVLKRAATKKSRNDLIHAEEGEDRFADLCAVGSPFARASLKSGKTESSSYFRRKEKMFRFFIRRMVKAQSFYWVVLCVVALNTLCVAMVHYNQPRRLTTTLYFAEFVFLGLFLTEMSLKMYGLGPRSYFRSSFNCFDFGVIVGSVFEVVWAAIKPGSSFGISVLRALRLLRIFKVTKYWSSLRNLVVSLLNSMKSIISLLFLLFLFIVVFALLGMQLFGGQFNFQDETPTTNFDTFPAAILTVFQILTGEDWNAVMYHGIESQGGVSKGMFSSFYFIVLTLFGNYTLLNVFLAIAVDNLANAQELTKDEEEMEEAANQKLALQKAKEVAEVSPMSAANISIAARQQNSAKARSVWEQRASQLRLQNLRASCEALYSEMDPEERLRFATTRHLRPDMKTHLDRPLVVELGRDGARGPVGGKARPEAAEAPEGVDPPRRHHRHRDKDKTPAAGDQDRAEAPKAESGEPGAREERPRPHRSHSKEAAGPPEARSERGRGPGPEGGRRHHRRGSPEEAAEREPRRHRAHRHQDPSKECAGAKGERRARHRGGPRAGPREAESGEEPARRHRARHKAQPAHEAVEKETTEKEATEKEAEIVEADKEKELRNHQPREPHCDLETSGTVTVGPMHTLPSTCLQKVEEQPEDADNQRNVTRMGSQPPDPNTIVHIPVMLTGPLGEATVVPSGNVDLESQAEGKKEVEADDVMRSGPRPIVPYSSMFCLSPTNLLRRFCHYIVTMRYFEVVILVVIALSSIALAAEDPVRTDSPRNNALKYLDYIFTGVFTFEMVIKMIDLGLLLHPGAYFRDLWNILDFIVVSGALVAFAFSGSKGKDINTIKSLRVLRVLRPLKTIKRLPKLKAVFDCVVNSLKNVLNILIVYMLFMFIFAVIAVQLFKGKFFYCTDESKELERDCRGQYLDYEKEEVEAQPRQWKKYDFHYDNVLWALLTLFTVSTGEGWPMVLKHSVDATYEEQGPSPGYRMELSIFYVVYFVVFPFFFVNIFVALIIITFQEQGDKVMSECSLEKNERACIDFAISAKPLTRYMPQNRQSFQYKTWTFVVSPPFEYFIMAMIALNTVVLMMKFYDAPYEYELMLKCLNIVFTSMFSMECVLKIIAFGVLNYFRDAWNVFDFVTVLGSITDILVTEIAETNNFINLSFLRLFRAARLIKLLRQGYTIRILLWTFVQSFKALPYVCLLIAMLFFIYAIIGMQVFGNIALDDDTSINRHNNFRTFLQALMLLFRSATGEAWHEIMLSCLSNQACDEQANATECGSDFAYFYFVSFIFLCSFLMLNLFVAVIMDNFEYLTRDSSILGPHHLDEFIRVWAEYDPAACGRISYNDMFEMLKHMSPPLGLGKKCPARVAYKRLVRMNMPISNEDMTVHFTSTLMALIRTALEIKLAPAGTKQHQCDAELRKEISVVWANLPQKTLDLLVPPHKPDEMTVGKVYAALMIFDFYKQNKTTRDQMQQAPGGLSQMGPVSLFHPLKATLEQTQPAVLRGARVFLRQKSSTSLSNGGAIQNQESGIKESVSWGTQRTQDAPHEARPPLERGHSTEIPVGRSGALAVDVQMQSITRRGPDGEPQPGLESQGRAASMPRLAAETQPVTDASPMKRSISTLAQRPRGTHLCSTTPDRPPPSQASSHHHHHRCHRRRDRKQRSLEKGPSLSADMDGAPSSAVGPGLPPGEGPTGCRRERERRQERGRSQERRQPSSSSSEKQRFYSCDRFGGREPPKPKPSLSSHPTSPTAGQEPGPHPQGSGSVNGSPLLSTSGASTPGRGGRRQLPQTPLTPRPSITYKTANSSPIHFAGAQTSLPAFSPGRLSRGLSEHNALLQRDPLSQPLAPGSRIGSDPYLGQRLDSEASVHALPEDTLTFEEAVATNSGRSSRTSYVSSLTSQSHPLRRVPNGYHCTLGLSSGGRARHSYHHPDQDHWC

Row | SMILES | IC50
1 | CC(C)(C1CCN(C(=O)[C@@H](N)Cc2ccccc2)CC1)S(=O)(=O)c1cccc(C(F)(F)F)c1 | 490 nM
2 | CC(C)(C1CCN(C(=O)[C@H](O)Cc2ccccc2)CC1)S(=O)(=O)c1cccc(C(F)(F)F)c1 | 510 nM
3 | CC(C)(C1CCN(C(=O)c2cccc(F)c2)CC1)S(=O)(=O)c1cccc(C(F)(F)F)c1 | 830 nM
4 | CC(C)(C1CCN(C(=O)c2cccc3nccnc23)CC1)S(=O)(=O)c1cccc(C(F)(F)F)c1 | 1400 nM
5 | CC(C)(C1CCN(C(=O)C2(N)CCC2)CC1)S(=O)(=O)c1cccc(C(F)(F)F)c1 | 1170 nM
6 | CC(C)(C1CCN(C(=O)C[C@@H](NS(C)(=O)=O)c2ccccc2)CC1)S(=O)(=O)c1cccc(C(F)(F)F)c1 | 360 nM
7 | CC(C)(C1CCN(C(=O)c2ccc(C(F)(F)F)cc2S(C)(=O)=O)CC1)S(=O)(=O)c1cccc(C(F)(F)F)c1 | 150 nM
8 | CC(C)(C1CCN(C(=O)c2c[nH]c(-c3ccccc3)n2)CC1)S(=O)(=O)c1cccc(C(F)(F)F)c1 | 1390 nM
9 | CC(C)(C)c1ccc(C(=O)N2CCC(C(C)(C)S(=O)(=O)c3cccc(C(F)(F)F)c3)CC2)cc1 | 490 nM
10 | CC(C)(C1CCN(C(=O)c2nc3ccc(F)cc3[nH]2)CC1)S(=O)(=O)c1cccc(C(F)(F)F)c1 | 790 nM
